Experimental data: ChEMBL document CHEMBL1141234, “Synthesis and SAR of highly potent dual 5-HT1A and 5-HT1B antagonists as potential antidepressant drugs” (Bioorg Med Chem Lett, 2005)

Tests used:
[1] = target: T1, 5-hydroxytryptamine receptor 1B (Homo sapiens, UniProt P28222); experiment: Inhibitory activity against human recombinant 5HT1B receptor co-expressed with G-protein chimera Gqo5 in HEK293 cells by FLIPR; assay type: functional, cell-based
[2] = target: T2, 5-hydroxytryptamine receptor 1A (Homo sapiens) (UniProt P08908); experiment: Functional activity in [35S]GTP-gamma-S assay for 5HT1A receptor
T2 sequence (whole entry): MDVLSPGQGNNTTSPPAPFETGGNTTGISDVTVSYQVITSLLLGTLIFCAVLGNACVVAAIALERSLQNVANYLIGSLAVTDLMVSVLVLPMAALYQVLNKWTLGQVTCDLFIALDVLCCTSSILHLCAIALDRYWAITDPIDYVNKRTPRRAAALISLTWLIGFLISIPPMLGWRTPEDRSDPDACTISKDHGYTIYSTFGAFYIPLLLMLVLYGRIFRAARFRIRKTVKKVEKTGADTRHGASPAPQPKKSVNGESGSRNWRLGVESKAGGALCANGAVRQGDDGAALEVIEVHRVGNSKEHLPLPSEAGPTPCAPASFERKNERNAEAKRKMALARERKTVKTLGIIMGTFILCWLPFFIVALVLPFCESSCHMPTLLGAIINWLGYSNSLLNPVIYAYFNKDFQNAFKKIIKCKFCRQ

[3] = target: T2, 5-hydroxytryptamine receptor 1A (Homo sapiens); experiment: Intrinsic activity for 5HT1A receptor in [35S]GTP-gamma-S assay; assay type: functional
[4] = target: T3, Adrenergic receptor alpha-1 (Homo sapiens, UniProt P35348+P25100+P35368); experiment: Inhibitory activity against Adrenergic alpha-1 receptor; assay type: protein assay
T3 sequence (P35348 whole entry): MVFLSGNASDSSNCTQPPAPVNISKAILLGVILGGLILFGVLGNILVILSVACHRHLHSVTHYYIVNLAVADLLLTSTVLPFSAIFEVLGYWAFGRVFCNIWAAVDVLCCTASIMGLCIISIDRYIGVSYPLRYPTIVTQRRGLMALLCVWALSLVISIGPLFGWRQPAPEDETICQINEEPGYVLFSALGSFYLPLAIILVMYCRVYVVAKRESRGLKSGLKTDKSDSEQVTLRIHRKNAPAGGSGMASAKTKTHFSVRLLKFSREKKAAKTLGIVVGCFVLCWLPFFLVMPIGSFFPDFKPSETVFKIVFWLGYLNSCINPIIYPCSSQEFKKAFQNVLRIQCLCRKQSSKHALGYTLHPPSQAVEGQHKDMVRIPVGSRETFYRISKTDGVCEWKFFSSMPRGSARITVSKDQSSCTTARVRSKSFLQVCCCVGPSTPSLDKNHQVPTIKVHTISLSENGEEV
T3 sequence (P25100 whole entry): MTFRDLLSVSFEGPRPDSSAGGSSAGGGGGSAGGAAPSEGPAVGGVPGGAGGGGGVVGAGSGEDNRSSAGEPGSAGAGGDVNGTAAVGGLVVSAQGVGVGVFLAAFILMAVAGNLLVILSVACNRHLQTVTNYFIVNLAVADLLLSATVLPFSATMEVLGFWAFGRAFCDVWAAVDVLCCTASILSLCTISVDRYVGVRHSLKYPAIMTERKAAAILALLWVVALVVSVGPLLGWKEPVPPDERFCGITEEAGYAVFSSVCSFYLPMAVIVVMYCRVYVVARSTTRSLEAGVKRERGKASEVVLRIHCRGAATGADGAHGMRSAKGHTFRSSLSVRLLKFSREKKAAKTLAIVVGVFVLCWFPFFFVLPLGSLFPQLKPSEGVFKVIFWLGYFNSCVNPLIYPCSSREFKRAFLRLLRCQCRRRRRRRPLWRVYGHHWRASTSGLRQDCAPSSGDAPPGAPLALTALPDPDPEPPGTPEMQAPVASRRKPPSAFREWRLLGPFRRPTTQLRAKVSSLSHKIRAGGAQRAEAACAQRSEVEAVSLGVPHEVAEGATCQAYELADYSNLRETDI
T3 sequence (P35368 whole entry): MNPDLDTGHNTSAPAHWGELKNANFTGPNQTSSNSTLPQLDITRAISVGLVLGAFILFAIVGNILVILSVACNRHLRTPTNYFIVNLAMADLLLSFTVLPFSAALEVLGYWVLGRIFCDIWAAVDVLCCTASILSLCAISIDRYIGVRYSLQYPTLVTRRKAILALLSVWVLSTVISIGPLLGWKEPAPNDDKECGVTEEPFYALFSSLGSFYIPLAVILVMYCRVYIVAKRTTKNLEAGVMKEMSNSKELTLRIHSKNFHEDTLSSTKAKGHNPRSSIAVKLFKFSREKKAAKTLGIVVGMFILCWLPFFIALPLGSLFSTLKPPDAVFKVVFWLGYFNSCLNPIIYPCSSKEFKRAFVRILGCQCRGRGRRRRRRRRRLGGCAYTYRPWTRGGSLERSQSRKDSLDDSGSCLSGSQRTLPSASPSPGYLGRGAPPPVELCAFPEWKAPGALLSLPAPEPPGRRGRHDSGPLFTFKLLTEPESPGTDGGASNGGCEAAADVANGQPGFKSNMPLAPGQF

[5] = target: T1, 5-hydroxytryptamine receptor 1B; experiment: Intrinsic activity for 5HT1B receptor in FLIPR assay; assay type: functional
[6] = target: T4, 5-hydroxytryptamine receptor 1A (Homo sapiens, UniProt P08908); experiment: Displacement of [35S]GTP-gamma-S from human recombinant 5HT1A receptor; assay type: functional
T4 sequence (P08908 whole entry): T2 sequence (whole entry)

[7] = target: T1, 5-hydroxytryptamine receptor 1B; experiment: Functional activity in FLIPR assay for 5HT1B receptor

T1 sequence (P28222 whole entry): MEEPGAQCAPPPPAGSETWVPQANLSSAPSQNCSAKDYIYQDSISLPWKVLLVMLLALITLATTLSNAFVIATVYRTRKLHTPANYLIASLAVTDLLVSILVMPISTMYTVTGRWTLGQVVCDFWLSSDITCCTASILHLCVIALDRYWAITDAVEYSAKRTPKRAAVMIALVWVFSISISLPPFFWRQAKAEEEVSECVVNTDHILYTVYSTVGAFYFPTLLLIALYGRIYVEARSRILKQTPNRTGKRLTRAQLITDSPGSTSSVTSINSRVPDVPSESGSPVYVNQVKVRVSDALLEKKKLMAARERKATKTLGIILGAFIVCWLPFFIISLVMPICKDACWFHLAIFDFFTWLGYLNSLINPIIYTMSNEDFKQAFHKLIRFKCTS

SMILES | Ki [1] [nM] | Activity ([2]; filed as partial agonist) | Emax [3] [%] | Ki [4] [nM] | Emax [5] [%] | Ki [6] [nM] | Activity ([7]; filed as partial agonist) | Activity ([7]; filed as antagonist) | Activity ([7]; filed as agonist) | Activity ([2]; filed as antagonist)
CN1CCc2c(sc3ncn(CCN4CCN(c5ccccc5Cl)CC4)c(=O)c23)C1 | 1.7 | Partial agonist | 10 | 1 | 20 | 2.8 | Partial agonist | – | – | –
COc1ccc2ccccc2c1N1CCN(CCn2cnc3sc4c(c3c2=O)CCN(C)C4)CC1 | 5.4 | Partial agonist | 10 | 4.5 | 20 | 11.8 | Partial agonist | – | – | –
COc1ccc(C)cc1N1CCN(CCn2cnc3sc4c(c3c2=O)CCN(C)C4)CC1 | 11.9 | Partial agonist | 10 | 12.1 | < 20 | 5.6 | – | Antagonist | – | –
COc1ccc(Cl)cc1N1CCN(CCn2cnc3sc4c(c3c2=O)CCN(C)C4)CC1 | 70.3 | – | < 10 | 0.1 | < 20 | 3 | – | Antagonist | – | Antagonist
CN1CCc2c(sc3ncn(CCN4CCN(c5ccccc5OCC(C)(C)C)CC4)c(=O)c23)C1 | 5.4 | Partial agonist | 10 | 0.2 | < 20 | 2.5 | – | Antagonist | – | –
CN1CCc2c(sc3ncn(CCN4CCN(c5ccc6ccccc6n5)CC4)c(=O)c23)C1 | 36.6 | Partial agonist | 10 | 121.1 | 20 | 9.1 | Partial agonist | – | – | –

The next molecules have a lower Ki [1] than those just listed; values first:

Ki [1] [nM] | Activity ([2]; filed as partial agonist) | Emax [3] [%] | Ki [4] [nM] | Emax [5] [%] | Ki [6] [nM] | Activity ([7]; filed as partial agonist) | Activity ([7]; filed as antagonist) | Activity ([7]; filed as agonist) | Activity ([2]; filed as antagonist) | SMILES
1.1 | Partial agonist | 10 | 0.5 | 20 | 0.9 | Partial agonist | – | – | – | CN1CCc2c(sc3ncn(CCN4CCN(c5ccccc5Oc5ccccc5)CC4)c(=O)c23)C1
1.1 | Partial agonist | 10 | 1.1 | < 20 | 4.1 | – | Antagonist | – | – | CN1CCc2c(sc3ncn(CCN4CCN(c5ccccc5-c5ccccc5)CC4)c(=O)c23)C1
0.5 | Partial agonist | 10 | 0.2 | < 20 | 0.6 | – | Antagonist | – | – | CN1CCc2c(sc3ncn(CCN4CCN(c5cccc6c5OCC6)CC4)c(=O)c23)C1
1.4 | Partial agonist | 10 | 1.8 | > 80 | 2.5 | – | – | Agonist | – | CN1CCc2c(sc3ncn(CCN4CCN(c5ccccc5C#N)CC4)c(=O)c23)C1
0.9 | Partial agonist | 10 | 129.1 | 20 | 0.9 | Partial agonist | – | – | – | CN1CCc2c(sc3ncn(CCN4CCN(c5cccc6cnccc56)CC4)c(=O)c23)C1
0.5 | Partial agonist | 10 | 13.2 | 20 | 0.7 | Partial agonist | – | – | – | CN1CCc2c(sc3ncn(CCN4CCN(c5cccc6ccccc56)CC4)c(=O)c23)C1
